Patent US9089603B2, “Fluorescent imaging with substituted cyanine dyes” (LI-COR, INC., priority 2010, dated 2015)

Legend:
[1] = Absorption wavelength of the cyanine dyes in methanol (halo substitution effect); type: physicochemical; details: Table 2
Excerpt: [table] Design Principle: We analyzed the properties of a dye scaffold and related compounds and the corresponding substitution effects on the excitation and emission wavelengths. The small size of fluorine is unlikely to produce steric effects, therefore, we explored the electronic effects of fluorine and related substitutions. The Hammett equation (σ-value) is an important tool to understand the electronic effects of the substituents, therefore, we explored the correlation of the wavelength (λMeOH) and the σ-value (vide infra): […]

U87GM cells = assay: Immunocytochemical binding, blocking and carboxylate control assay in U87GM cells; type: cell-based; details: tested up to 5 μM, noted above 2 μM
Procedure: RGD (Arg-Gly-Asp), the recognition motif used to bind the integrin receptors, was labeled with compound 17. The characteristics of RGD/17 conjugate and the analogous dye carboxylate 16 were evaluated in a cell-based assay.
Immunocytochemical assays provide a tool for screening a compound for specificity of a labeled agent. Binding assays give valuable information on affinity of the labeled agent to the intended target.
Compound 17 was conjugated to the peptide RGD by the general procedure set forth in Example 32.
The cell lines U87GM and PC3MLN4 were assayed. Assays included binding, blocking, and carboxylate control. Serial dilutions of compound 16 were prepared at concentrations of 200-6.25 nM. Blocking was accomplished with unlabeled RGD at concentrations of 10-0.31 μM with the addition of 200 nM compound 17-RGD conjugates in all test wells. The compound 16 was evaluated as a dye control for non-specific binding at relatively high levels from 5-0.16 μM with U87GM cells and 1-0.002 μM with PC3 cells.
In the second round of testing with U87GM cells, concentrations of unlabeled RGD and compound 17/RGD were increased (FIGS. 8A and 8B). Binding assay concentrations utilized 0.8-400 nM while the blocking assay used 0.06-30 μM unlabeled RGD with an addition of 200 nM 17/RGD.

[2] = In vivo clearance imaging in nude mice (Pearl Impulse); details: 1 nmole; for Total (signal): 800 channel
Procedure: Two nude mice were injected with 1 nmole of either compound 16 or IRDye 800CW carboxylate. They were then imaged longitudinally over the next 24 h with the Pearl Impulse imaging system. The results are presented in FIG. 9: in vivo clearance in nudes (FIG. 9A), whole body dorsal views (FIG. 9B), and the rate of clearance (FIG. 9C). The clearance data is presented below in Table 4.

[3] = Comparison of dye emission maxima and quenching; type: physicochemical; details: IRDye 800CW samples, excitation 770 nm; for Peak fluorescence emission intensity: PBS pH 7.4; for Percent Quenching: versus dye-linker standard
Procedure: Solutions of dye-linker standards and dye-linker-quencher samples were diluted into PBS buffer (pH 7.4) to give a dye-specific absorbance less than 0.2 AU. The fluorescence spectra of each dilution were then taken at a consistent excitation wavelength (670 nm for HETD and 770 nm for IRDye 800CW). The emission spectra were collected from 680-1000 nm for the HETD samples and 780-1000 nm for the IRDye 800CW samples.

[4] = Photophysical properties (absorption, emission, fluorescence intensity, quantum yield) versus IRDye 800CW; type: physicochemical
[5] = IRDye 800CW used as standard; cited from earlier work

CC1(C)C(/C=C/C2=C(c3c(F)cc(F)cc3F)C(=C/C=C3/N(CCCS(=O)(=O)[O-])c4ccc(S(=O)(=O)[O-])cc4C3(C)C)/CC(C(=O)O)C2)=[N+](CCCS(=O)(=O)[O-])c2ccc(S(=O)(=O)[O-])cc21.[Na+].[Na+].[Na+] (stereo not drawn) [Compound 16]
λMeOH [1]: 785 nm | Non-specific binding of the dye component alone (U87GM cells): Relatively high binding | Total (signal) ([2]; 1 Min): 109682.80 | Total (signal) ([2]; 17 Min): 282046.59 | Total (signal) ([2]; 45 Min): 286573.94 | Total (signal) ([2]; 71 Min): 266647.59 | Total (signal) ([2]; 190 Min): 139736.97 | Total (signal) ([2]; 276 Min): 76493.30 | Total (signal) ([2]; 1435 Min): 1652.69 | Clearance in vivo ([2]; nude mice, imaged over 24 h): good clearance

CC1(C)C(/C=C/C2=C(Oc3ccc(S(=O)(=O)[O-])cc3)C(=C/C=C3/N(CCCCCC(=O)NCCC(=O)N4Cc5ccccc5C#Cc5ccccc54)c4ccc(S(=O)(=O)[O-])cc4C3(C)C)/CCC2)=[N+](CCCCS(=O)(=O)[O-])c2ccc(S(=O)(=O)[O-])cc21.[Na+].[Na+].[Na+] [Compound 30]
Peak fluorescence emission intensity [3]: 1203780

CC1(C)C(/C=C/C2=C(Oc3ccc(S(=O)(=O)[O-])cc3)C(=C/C=C3/N(CCCCS(=O)(=O)[O-])c4ccc(S(=O)(=O)[O-])cc4C3(C)C)/CCC2)=[N+](CCCCCC(=O)NCCCOCCOCCOCCCN)c2ccc(S(=O)(=O)[O-])cc21.O=C(O)C(F)(F)F.[Na+].[Na+].[Na+] [Compound 32]
Peak fluorescence emission intensity [3]: 1343900

CC1(C)C(/C=C/C2=C(Oc3ccc(S(=O)(=O)[O-])cc3)C(=C/C=C3/N(CCCCS(=O)(=O)[O-])c4ccc(S(=O)(=O)[O-])cc4C3(C)C)/CCC2)=[N+](CCCCCC(=O)NCCCCCCNC(=O)CCCCC[N+]2=C(/C=C/C3=C(c4ccccc4F)C(=C/C=C4/N(CCCS(=O)(=O)[O-])c5ccc(N(CCCS(=O)(=O)[O-])CCCS(=O)(=O)[O-])cc5C4(C)C)/CCC3)C(C)(C)c3c2ccc2cc(S(=O)(=O)[O-])ccc32)c2ccc(S(=O)(=O)[O-])cc21.[Na+].[Na+].[Na+].[Na+].[Na+].[Na+] [Compound 37]
Peak fluorescence emission intensity [3]: 519267 | Percent Quenching [3]: 61.4%

CC1(C)C(/C=C/C2=C(Oc3ccc(S(=O)(=O)[O-])cc3)C(=C/C=C3/N(CCCCS(=O)(=O)[O-])c4ccc(S(=O)(=O)[O-])cc4C3(C)C)/CCC2)=[N+](CCCCCC(=O)NCCCOCCOCCOCCCNC(=O)CCCCC[N+]2=C(/C=C/C3=C(c4ccccc4F)C(=C/C=C4/N(CCCS(=O)(=O)[O-])c5ccc(N(CCCS(=O)(=O)[O-])CCCS(=O)(=O)[O-])cc5C4(C)C)/CCC3)C(C)(C)c3c2ccc2cc(S(=O)(=O)[O-])ccc32)c2ccc(S(=O)(=O)[O-])cc21.[Na+].[Na+].[Na+].[Na+].[Na+].[Na+] [Compound 38]
Peak fluorescence emission intensity [3]: 385983 | Percent Quenching [3]: 71.3%

CC1(C)C(/C=C/C2=C(Oc3ccc(S(=O)(=O)[O-])cc3)C(=C/C=C3/N(CCCCS(=O)(=O)[O-])c4ccc(S(=O)(=O)[O-])cc4C3(C)C)/CCC2)=[N+](CCCCCC(=O)NCCOCCOCCOCCOCCOCCOCCOCCOCCOCCOCCOCCNC(=O)CCCCC[N+]2=C(/C=C/C3=C(c4ccccc4F)C(=C/C=C4/N(CCCS(=O)(=O)[O-])c5ccc(N(CCCS(=O)(=O)[O-])CCCS(=O)(=O)[O-])cc5C4(C)C)/CCC3)C(C)(C)c3c2ccc2cc(S(=O)(=O)[O-])ccc32)c2ccc(S(=O)(=O)[O-])cc21.[Na+].[Na+].[Na+].[Na+].[Na+].[Na+] [Compound 39]
Peak fluorescence emission intensity [3]: 438981 | Percent Quenching [3]: 65.5%

CC1(C)C(=CC=C2CCCC(C=CC3=[N+](CCCCCC(=O)[O-])c4ccc(S(=O)(=O)[O-])cc4C3(C)C)=C2Oc2ccc(S(=O)(=O)[O-])cc2)N(CCCCS(=O)(=O)[O-])c2ccc(S(=O)(=O)[O-])cc21.[Na+].[Na+].[Na+].[Na+] [IRDye 800CW, reference compound]
Fl Intensity of X / Fl Intensity of 800 CW, Odyssey ([4]; 0.1 μM solutions in 1XPBS, Odyssey): 100% | Fl Intensity of X / Fl Intensity of 800 CW, Fluorimeter ([4]; 0.1 μM solutions in 1XPBS, fluorimeter): 100% | Abs Max PBS ([4]; in PBS): 775 nm | EmMax PBS ([4]; in PBS): 790 nm | Quantum Yield of the standard [5]: 0.07

CC1(C)C(/C=C/C2=C(Oc3ccc(S(=O)(=O)[O-])cc3)C(=C/C=C3/N(CCCCS(=O)(=O)[O-])c4ccc(S(=O)(=O)[O-])cc4C3(C)C)/CCC2)=[N+](CCCCCC(=O)NCCOCCOCCOCCOCCOCCOCCOCCOCCOCCOCCOCCN)c2ccc(S(=O)(=O)[O-])cc21.O=C(O)C(F)(F)F.[Na+].[Na+].[Na+] [IRDye 800CW-PEG11-NH2]
Peak fluorescence emission intensity [3]: 1272820
